Test results taken from the supplement of paper PMC8967900.

Test system: COG-LL-319h
Assay: selective drug sensitivity score (sDSS, relative to normal bone marrow) (sDSS (score)); higher = more potent and effective on the cell line relative to normal bone marrow cells
Settings: 72 h
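Further: ALL cell lines in 384-well plates, five doses spanning 10,000-fold, each plate scaled between vehicle and 100 µmol/L benzalkonium chloride controls, sDSS an adapted area-under-curve metric.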

SMILES	selective drug sensitivity score
Oc1ncnc2[nH]ncc12 [Allopurinol] (top concentration 10000 nM)	3.56
CC(C)n1cnc2c(NCCc3ccc(O)cc3)nc(-c3csc4ccccc34)nc21 [StemRegenin_1] (top concentration 10000 nM)	-1.8
C#Cc1cccc(Nc2ncnc3cc4c(cc23)OCCOCCOCCO4)c1 [Icotinib] (top concentration 10000 nM)	1.8
CN[C@@H](C)C(=O)N[C@H]1CN(C(=O)CC(C)C)CC[C@H]2CC[C@@H](C(=O)NC(c3ccccc3)c3ccccc3)N2C1=O [AT-406] (top concentration 10000 nM)	-1.06
CC(C)(O)CC(=O)NCCn1ccc2ncnc(Nc3ccc(Oc4cccc(C(F)(F)F)c4)c(Cl)c3)c21 [TAK-285] (top concentration 2500 nM)	0
COc1cc(C)[nH]c(=O)c1CNC(=O)c1c(C)n([C@H](C)C2CCOCC2)c2ccccc12 [CPI-360] (top concentration 10000 nM)	0
Cc1cc2c(C(=O)NC[C@H](C)c3ccccc3)c(O)c(O)cc2c(O)c1-c1c(C)cc2c(C(=O)NC[C@H](C)c3ccccc3)c(O)c(O)cc2c1O [Sabutoclax] (top concentration 25000 nM)	10.8
CC(C)(C)C[C@@H]1N[C@@H](C(=O)N[C@H]2CC[C@H](O)CC2)[C@H](c2cccc(Cl)c2F)[C@]12C(=O)Nc1cc(Cl)ccc12 (top concentration 10000 nM)	13.9
C[C@@H]1C[C@H]2[C@@H]3CCC4=CC(=O)C=C[C@]4(C)[C@@]3(F)[C@@H](O)C[C@]2(C)[C@@]1(O)C(=O)CO [Dexamethasone] (top concentration 10000 nM)	26.5

Test system: COG-LL-332h
Assay: as above
Settings: 72 h

SMILES	selective drug sensitivity score
Nc1nc2cc(-c3ccc4ncc(C(=O)N5CCOCC5)n4c3)ccc2o1 [Serabelisib] (top concentration 10000 nM)	-1.14
COc1cccc(-c2ccc(NC(=O)C3=C(C(=O)O)CCC3)c(F)c2)c1 [Vidofludimus] (top concentration 10000 nM)	4.9
Cc1cccc(-c2nn3c(c2-c2ccnc4ccc(C(N)=O)cc24)CCC3)n1 [Galunisertib] (top concentration 1000 nM)	0
COc1cc2c(N3CCN(C(=O)Nc4ccc(OC(C)C)cc4)CC3)ncnc2cc1OCCCN1CCCCC1 [Tandutinib] (top concentration 1000 nM)	0
Cc1c(F)cc(C(=O)NC2CC2)cc1-c1ccc(C(=O)NCC(C)(C)C)cn1 [Losmapimod] (top concentration 10000 nM)	-0.18
Nc1nc(N)c2nc(-c3cccc(O)c3)c(-c3cccc(O)c3)nc2n1 [TG100-115] (top concentration 10000 nM)	0.2
C[C@]12CC[C@@H]3c4ccc(O)cc4C[C@@H](CCCCCCCCC[S+]([O-])CCCC(F)(F)C(F)(F)F)[C@H]3[C@@H]1CC[C@@H]2O (stereo not given in full) [Fulvestrant] (top concentration 1000 nM)	0
O=C(Nc1cccnc1)N1CCC(Cc2cccc(Oc3ccc(C(F)(F)F)cn3)c2)CC1 [PF-3845] (top concentration 10000 nM)	2.16
COc1cc2c(cc1OCCCN1CCCC1)N=C(N)C21CCC1 [A-366] (top concentration 25000 nM)	4.86
Oc1ncnc2[nH]ncc12 [Allopurinol] (top concentration 10000 nM)	-0.64
CC(C)n1cnc2c(NCCc3ccc(O)cc3)nc(-c3csc4ccccc34)nc21 [StemRegenin_1] (top concentration 10000 nM)	0.8
C#Cc1cccc(Nc2ncnc3cc4c(cc23)OCCOCCOCCO4)c1 [Icotinib] (top concentration 10000 nM)	0.3
CN[C@@H](C)C(=O)N[C@H]1CN(C(=O)CC(C)C)CC[C@H]2CC[C@@H](C(=O)NC(c3ccccc3)c3ccccc3)N2C1=O [AT-406] (top concentration 10000 nM)	2.54
CC(C)(O)CC(=O)NCCn1ccc2ncnc(Nc3ccc(Oc4cccc(C(F)(F)F)c4)c(Cl)c3)c21 [TAK-285] (top concentration 2500 nM)	0
COc1cc(C)[nH]c(=O)c1CNC(=O)c1c(C)n([C@H](C)C2CCOCC2)c2ccccc12 [CPI-360] (top concentration 10000 nM)	0
Cc1cc2c(C(=O)NC[C@H](C)c3ccccc3)c(O)c(O)cc2c(O)c1-c1c(C)cc2c(C(=O)NC[C@H](C)c3ccccc3)c(O)c(O)cc2c1O [Sabutoclax] (top concentration 25000 nM)	12.8
CC(C)(C)C[C@@H]1N[C@@H](C(=O)N[C@H]2CC[C@H](O)CC2)[C@H](c2cccc(Cl)c2F)[C@]12C(=O)Nc1cc(Cl)ccc12 (top concentration 10000 nM)	8.66
C[C@@H]1C[C@H]2[C@@H]3CCC4=CC(=O)C=C[C@]4(C)[C@@]3(F)[C@@H](O)C[C@]2(C)[C@@]1(O)C(=O)CO [Dexamethasone] (top concentration 10000 nM)	1.88

Test system: COG-LL-355h
Assay: as above
Settings: 72 h

SMILES	selective drug sensitivity score
Nc1nc2cc(-c3ccc4ncc(C(=O)N5CCOCC5)n4c3)ccc2o1 [Serabelisib] (top concentration 10000 nM)	4.06
COc1cccc(-c2ccc(NC(=O)C3=C(C(=O)O)CCC3)c(F)c2)c1 [Vidofludimus] (top concentration 10000 nM)	0
Cc1cccc(-c2nn3c(c2-c2ccnc4ccc(C(N)=O)cc24)CCC3)n1 [Galunisertib] (top concentration 1000 nM)	0
COc1cc2c(N3CCN(C(=O)Nc4ccc(OC(C)C)cc4)CC3)ncnc2cc1OCCCN1CCCCC1 [Tandutinib] (top concentration 1000 nM)	0
Cc1c(F)cc(C(=O)NC2CC2)cc1-c1ccc(C(=O)NCC(C)(C)C)cn1 [Losmapimod] (top concentration 10000 nM)	1.92
Nc1nc(N)c2nc(-c3cccc(O)c3)c(-c3cccc(O)c3)nc2n1 [TG100-115] (top concentration 10000 nM)	3.7
C[C@]12CC[C@@H]3c4ccc(O)cc4C[C@@H](CCCCCCCCC[S+]([O-])CCCC(F)(F)C(F)(F)F)[C@H]3[C@@H]1CC[C@@H]2O (stereo not given in full) [Fulvestrant] (top concentration 1000 nM)	1.3
O=C(Nc1cccnc1)N1CCC(Cc2cccc(Oc3ccc(C(F)(F)F)cn3)c2)CC1 [PF-3845] (top concentration 10000 nM)	-0.54
COc1cc2c(cc1OCCCN1CCCC1)N=C(N)C21CCC1 [A-366] (top concentration 25000 nM)	0.76
Oc1ncnc2[nH]ncc12 [Allopurinol] (top concentration 10000 nM)	-0.64
CC(C)n1cnc2c(NCCc3ccc(O)cc3)nc(-c3csc4ccccc34)nc21 [StemRegenin_1] (top concentration 10000 nM)	-0.1
C#Cc1cccc(Nc2ncnc3cc4c(cc23)OCCOCCOCCO4)c1 [Icotinib] (top concentration 10000 nM)	0.1
CN[C@@H](C)C(=O)N[C@H]1CN(C(=O)CC(C)C)CC[C@H]2CC[C@@H](C(=O)NC(c3ccccc3)c3ccccc3)N2C1=O [AT-406] (top concentration 10000 nM)	8.04
CC(C)(O)CC(=O)NCCn1ccc2ncnc(Nc3ccc(Oc4cccc(C(F)(F)F)c4)c(Cl)c3)c21 [TAK-285] (top concentration 2500 nM)	0
COc1cc(C)[nH]c(=O)c1CNC(=O)c1c(C)n([C@H](C)C2CCOCC2)c2ccccc12 [CPI-360] (top concentration 10000 nM)	0
Cc1cc2c(C(=O)NC[C@H](C)c3ccccc3)c(O)c(O)cc2c(O)c1-c1c(C)cc2c(C(=O)NC[C@H](C)c3ccccc3)c(O)c(O)cc2c1O [Sabutoclax] (top concentration 25000 nM)	15.6
CC(C)(C)C[C@@H]1N[C@@H](C(=O)N[C@H]2CC[C@H](O)CC2)[C@H](c2cccc(Cl)c2F)[C@]12C(=O)Nc1cc(Cl)ccc12 (top concentration 10000 nM)	8.46
C[C@@H]1C[C@H]2[C@@H]3CCC4=CC(=O)C=C[C@]4(C)[C@@]3(F)[C@@H](O)C[C@]2(C)[C@@]1(O)C(=O)CO [Dexamethasone] (top concentration 10000 nM)	30.7
